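Protocol summary: plate cells (96-well), add compound at 5 concentrations, incubate 48 h, interpolate endpoints linearly. At the TGI there is no net growth.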
Columns and labels:
Assay in all cases: DTP human tumour cell line panel, 48 h
[1] = test system: 786-0 renal
[2] = test system: A498 renal
[3] = test system: A549 NSCLC
[4] = test system: ACHN renal
[5] = test system: BT-549 breast
[6] = test system: CAKI-1 renal
[7] = test system: COLO 205 colon
[8] = test system: DU-145 prostate
[9] = test system: EKVX NSCLC
[10] = test system: HCC-2998 colon
[11] = test system: HCT-116 colon
[12] = test system: HCT-15 colon
[13] = test system: HL-60(TB) leukemia
[14] = test system: HOP-62 NSCLC
[15] = test system: HOP-92 NSCLC
[16] = test system: HS 578T breast
[17] = test system: HT29 colon
[18] = test system: IGROV1 ovarian
[19] = test system: KM12 colon
[20] = test system: LOX IMVI melanoma
[21] = test system: M14 melanoma
[22] = test system: MCF7 breast
[23] = test system: MDA-MB-231 breast
[24] = test system: MDA-MB-435
[25] = test system: MDA-N
[26] = test system: MOLT-4 leukemia
[27] = test system: NCI-H226 lung
[28] = test system: NCI-H23 lung
[29] = test system: NCI-H460 lung
[30] = test system: NCI-H522 lung
[31] = test system: NCI/ADR-RES ovarian
[32] = test system: OVCAR-3 ovarian
[33] = test system: OVCAR-4 ovarian
[34] = test system: OVCAR-5 ovarian
[35] = test system: OVCAR-8 ovarian
[36] = test system: PC-3 prostate
[37] = test system: RPMI-8226 leukemia
[38] = test system: RXF 393 renal
[39] = test system: SF-268 CNS
[40] = test system: SF-295 CNS
[41] = test system: SF-539 CNS
[42] = test system: SK-MEL-2 melanoma
[43] = test system: SK-MEL-28 melanoma
[44] = test system: SK-MEL-5 melanoma
[45] = test system: SK-OV-3 ovarian
[46] = test system: SN12C renal
[47] = test system: SNB-19 CNS
[48] = test system: SNB-75 CNS
[49] = test system: SR leukemia
[50] = test system: SW-620 colon
[51] = test system: T-47D breast
[52] = test system: TK-10 renal
[53] = test system: U251 CNS
[54] = test system: UACC-257 melanoma
[55] = test system: UACC-62 melanoma
[56] = test system: UO-31 renal
[57] = test system: CCRF-CEM leukemia
[58] = test system: K-562 leukemia
[59] = test system: MALME-3M melanoma

COC(=O)C1C(C(=O)OC)C1(Br)CBr (stereo not drawn)
TGI [1]: 36.3 µM | TGI [2]: > 100 µM | TGI [3]: > 100 µM | TGI [4]: 61.8 µM | TGI [5]: 94.3 µM | TGI [6]: 31.6 µM | TGI [7]: 41 µM | TGI [8]: > 100 µM | TGI [9]: 90.3 µM | TGI [10]: > 100 µM | TGI [11]: > 100 µM | TGI [12]: 38.7 µM | TGI [13]: > 100 µM | TGI [14]: > 100 µM | TGI [15]: 54.9 µM | TGI [16]: > 100 µM | TGI [17]: 63.3 µM | TGI [18]: > 100 µM | TGI [19]: > 100 µM | TGI [20]: 51.5 µM | TGI [21]: > 100 µM | TGI [22]: > 100 µM | TGI [23]: > 100 µM | TGI [24]: > 100 µM | TGI [25]: > 100 µM | TGI [26]: 21 µM | TGI [27]: > 100 µM | TGI [28]: > 100 µM | TGI [29]: > 100 µM | TGI [30]: 14.1 µM | TGI [31]: > 100 µM | TGI [32]: > 100 µM | TGI [33]: > 100 µM | TGI [34]: > 100 µM | TGI [35]: > 100 µM | TGI [36]: > 100 µM | TGI [37]: 44.3 µM | TGI [38]: 41.6 µM | TGI [39]: > 100 µM | TGI [40]: > 100 µM | TGI [41]: > 100 µM | TGI [42]: > 100 µM | TGI [43]: > 100 µM | TGI [44]: > 100 µM | TGI [45]: > 100 µM | TGI [46]: 79.4 µM | TGI [47]: > 100 µM | TGI [48]: > 100 µM | TGI [49]: 46.8 µM | TGI [50]: > 100 µM | TGI [51]: 50.4 µM | TGI [52]: > 100 µM | TGI [53]: > 100 µM | TGI [54]: > 100 µM | TGI [55]: > 100 µM | TGI [56]: 34.9 µM

CCC(=O)NCCc1c2c3c(ccnc3c3ncsc13)-c1ccccc1N2
TGI [1]: > 55.4 µM | TGI [2]: > 100 µM | TGI [3]: > 53.1 µM | TGI [4]: > 38.3 µM | TGI [5]: 57.3 µM | TGI [6]: > 100 µM | TGI [57]: > 100 µM | TGI [7]: > 100 µM | TGI [8]: > 100 µM | TGI [9]: > 100 µM | TGI [11]: 51.2 µM | TGI [12]: > 100 µM | TGI [13]: > 13.4 µM | TGI [14]: > 100 µM | TGI [15]: > 100 µM | TGI [16]: 18.7 µM | TGI [17]: > 100 µM | TGI [18]: > 100 µM | TGI [58]: > 100 µM | TGI [19]: > 100 µM | TGI [20]: > 82.6 µM | TGI [21]: > 100 µM | TGI [59]: > 100 µM | TGI [22]: > 100 µM | TGI [23]: > 68.4 µM | TGI [24]: > 64.5 µM | TGI [25]: > 100 µM | TGI [26]: > 64.5 µM | TGI [27]: 16.7 µM | TGI [28]: > 100 µM | TGI [29]: 29.1 µM | TGI [30]: 38.4 µM | TGI [31]: > 100 µM | TGI [32]: > 66.5 µM | TGI [33]: > 100 µM | TGI [34]: > 100 µM | TGI [35]: > 71.1 µM | TGI [36]: > 100 µM | TGI [37]: 19.8 µM | TGI [38]: > 100 µM | TGI [39]: > 100 µM | TGI [40]: > 100 µM | TGI [41]: 7.52 µM | TGI [42]: > 100 µM | TGI [43]: > 100 µM | TGI [44]: 34.2 µM | TGI [45]: > 100 µM | TGI [46]: > 100 µM | TGI [47]: > 100 µM | TGI [48]: > 88.3 µM | TGI [50]: > 100 µM | TGI [51]: > 100 µM | TGI [52]: > 100 µM | TGI [53]: > 79.7 µM | TGI [54]: > 94.9 µM | TGI [55]: > 67.1 µM | TGI [56]: > 100 µM

Source: PubChem BioAssay (NCI)
